Columns and labels:
Human Carboanhydrase I = Human Carboanhydrase I (Homo sapiens, UniProt P00915); test: Inhibition of carboanhydrase I (CO2 hydration); type: biochemical; conditions: read-out: CAI IC50
Experimental: Test preparation: A constant CO2 stream is directed by a buffer that was mixed with carboanhydrase I. The time that is required to reduce the pH within defined limits is a measuring parameter. This parameter reflects the formation of H2CO3 in the medium. IC50 inhibiting values are determined by test substances being pipetted into the test preparation.

erythrocytes [1] = test: Determination of the erythrocyte/plasma ratio of the substance; type: in vitro ADME; conditions: fresh blood; tracer use for compound 1 or 9, otherwise non-radioactive
Experimental: Determination of the substance concentration in the erythrocyte/plasma ratio (tracer use):
Fresh blood is incubated with a defined amount of tracer compound of compound 1 or 9. After the erythrocytes are separated, the measured radioactivity in the erythrocytes is put into a ratio with the measured radioactivity in the plasma.
Determination of the erythrocyte/plasma ratio (non-radioactive):
Freshly-obtained, heparinized blood is mixed with a defined amount of test substance. The concentration in the plasma obtained therefrom is measured. The erythrocyte/plasma ratio is calculated from the measured concentration of the total substance in the plasma and the concentration that is used.

ovariectomized rats = test: Induction of uterus growth in ovariectomized rats, oral treatment days 1-3; type: in vivo, rat; conditions: oral administration
Experimental: (§1) Adult Wistar rats were ovariectomized 14 days after this operation for the study of the substances according to the invention. A treatment extended over 3 days (days 1-3); on day 4 after the animals were sacrificed, the recovery of plasma for hormone-analytical and clinical-chemical determinations and the determination of uterus weights were carried out. In satellite tests, correspondingly conditioned animals were sacrificed and samples were taken of their blood after one-time treatment and at other times (see Table 1 for determining estradiol and estrone in the plasma).
In FIG. 1, the induction of uterus growth in ovariectomized rats is depicted. The treatment is carried out orally from day 1 to the 3rd day, and then the autopsy is carried out on the 4th day. A maximum uterus growth predominantly at 30 μg/animal/day is shown.

erythrocytes [2] = test: Displacement of estradiol-3-sulfamate from the erythrocyte bond (relative binding affinity); design: species or system human; conditions: for RBA to Erythrocytes: human blood, displacement of 14C-labeled estradiol sulfamate; for bond to erythrocytes (in words): m-substituted versus p-substituted compounds
Experimental: The SO2—NTH2 group of the substances according to the invention can result in a concentration in erythrocytes by binding to carboanhydrases. The displacement of estradiol-3-sulfamate from the erythrocyte bond by test substances is measured.
Test preparation: Human blood is mixed with a mixture that consists of ^14C-labeled and unlabeled estradiol sulfamate. The erythrocytes are saturated at the selected working point, and the distribution in plasma/erythrocytes is 40:60. A second blood sample is mixed with a mixture that consists of ^14C-labeled estradiol sulfamate and unlabeled test substance. The relative binding affinity is calculated from the proportion of ^14C-labeled estradiol sulfamate in plasma: higher proportion=strong displacement of ^14C-estradiol sulfamate from the erythrocytes by the test substance=high binding affinity of the test substances to the erythrocytes.

angiotensinogen = test: Liver estrogeneity (marker angiotensinogen) in ovariectomized rats; type: in vivo, rat; conditions: oral administration
Experimental: as §1

[3] = Estradiol (E2) and estrone (E1) levels in plasma of rats after one-time oral administration; type: in vivo, rat
Experimental: as §1

Sequence of Human Carboanhydrase I (P00915 whole entry): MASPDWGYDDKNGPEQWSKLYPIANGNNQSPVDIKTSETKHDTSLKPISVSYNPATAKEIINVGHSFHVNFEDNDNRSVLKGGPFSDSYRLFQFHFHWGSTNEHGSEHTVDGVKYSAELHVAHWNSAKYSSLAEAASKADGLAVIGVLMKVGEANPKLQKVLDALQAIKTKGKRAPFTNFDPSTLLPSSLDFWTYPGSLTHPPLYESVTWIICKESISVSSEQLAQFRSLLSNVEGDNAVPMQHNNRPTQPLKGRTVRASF

Row | SMILES | IC50 (Human Carboanhydrase I) [nM] | Distribution Ratio of the Substance to Erythrocytes/Plasma (erythrocytes [1]) | estrogenic activity in the uterus / uterus growth (in words) (ovariectomized rats) | RBA to Erythrocytes (erythrocytes [2]) | bond to erythrocytes (in words) (erythrocytes [2]) | hepatic estrogenic action, marker angiotensinogen (in words) (angiotensinogen) | oral availability and estrogeneity compared with the p-substituted compound (in words) [3] | increase of mother estrogen (estradiol) on oral administration (in words) ([3]; rats)
1 | C[C@]12CC[C@@H]3c4ccc(O)cc4CC[C@H]3[C@@H]1CC[C@@H]2OC(=O)c1ccc(S(N)(=O)=O)cc1 [Compound 1, 3-Hydroxyestra-1,3,5(10)-trien-17β-yl 4′-sulfamoylbenzoate] | 190 | 7.7 | superior action on the uterus growth | 32 | very strong bond | much lesser action on estrogen-modulated liver functions | – | –
2 | C[C@]12CC[C@@H]3c4ccc(O)cc4CC[C@H]3[C@@H]1CC[C@@H]2OC(=O)c1cc(S(N)(=O)=O)c(Cl)cc1Cl [Compound 7, 3-Hydroxyestra-1,3,5(10)-trien-17β-yl 2′,4′-dichloro-5′-sulfamoylbenzoate] | 500 | 5 | – | 0.40 | weaker bonds | – | – | –
3 | C[C@]12CC[C@@H]3c4ccc(O)cc4CC[C@H]3[C@@H]1CC[C@@H]2OC(=O)c1cccc(S(N)(=O)=O)c1 [Compound 9, 3-Hydroxyestra-1,3,5(10)-trien-17β-yl 3′-sulfamoylbenzoate] | 380 | 4 | enhanced in comparison to estradiol | 0.18 | weaker bonds | – | higher oral availability and estrogeneity | very strong increase
4 | C[C@]12CC[C@@H]3c4ccc(OS(N)(=O)=O)cc4CC[C@H]3[C@@H]1CC[C@@H]2O [Estradiol-3-sulfamate, reference compound] | 157 ± 10.6 | 49 | – | 100 | – | – | – | –
5 | C#C[C@]1(O)CC[C@H]2[C@@H]3CCc4cc(O)ccc4[C@H]3CC[C@@]21C [ethinyl estradiol, 17α-ethinyl estradiol, reference compound] | – | – | – | – | – | significant increase in angiotensinogen | – | –

Reference: patent US7534780B2, “Estradiol prodrugs” (Bayer Schering Pharma Aktiengesellschaft, priority 2004, dated 2009)
